Source: patent publication US20260062445A1, “PEPTIDES WITH CYTOKINE-RELEASING ACTIVITY AND METHODS FOR CHARACTERIZING CYTOKINE-RELEASING PROFILES OF PEPTIDES” (KOLIBER BIOSCIENCES INC., priority 2022, published 2026)

Tested on: expanded naïve CD4+ T cells co-cultured with PBMCs
Assay: Expanded CD4 positive T cell assay (cytokine release, ELISA)
Type: cell-based, human
Details: for response across donors (frequency of responding wells, IL-10 and IFN-γ): three different donors expressing HLA-DRB1*1101, FIGS. 7A-7B
Excerpt: To improve the robustness of the assay and decrease the well-to-well variation, a novel assay system was developed. In effect, by expanding the naïve CD4+ T cells, the number of antigen specific T cells can be increased per well with the goal of detecting a responding well with greater frequency. To expand the naïve CD4+ T cells, the cells are first isolated from PBMCs using negative selection with antibody coated magnetic beads. The naïve CD4+ T cells are then polyclonally expanded using anti-CD3 and anti-CD28 Dynabeads. An expansion of up to 20-fold was observed. The beads were then removed, and the cells were rested for 24 hours. The expanded CD4+ T cells were then co-cultured with PBMCs at a 4:1 ratio and stimulated with peptides twice every 3 days. IL-2 helper cytokine was included. Peptides were utilized at 40 μg/mL. After two peptide stimulations, IL-10 levels in the range of 20-50 picograms […]/mL were observed as compared to 5-10 pg/mL for negative controls (vehicle only) (see FIG. 3C).
PBMCs were isolated from healthy HLA typed donors of different ages, ethnicities, and genders. […] 100 million PBMC were thawed into media (Rosewell Park Memorial Institute (RPMI) 1640 medium, 10% fetal bovine serum (FBS) Heat Inactivated, 1% Penicillin-Streptomycin) and rested at 37° C., 5% CO2 overnight.
Naïve CD4+ T cells are isolated from rested PBMC using the BioLegend MojoSort™ Human CD4 T Cell Isolation Kit. Isolated T cells were counted and cultured at a density of 1×10^6 cells/mL of media with 30 units per milliliter (U/mL) of IL-2. T cells were activated and expanded using ThermoFisher Dynabeads™ Human T-Activator CD3/CD28. Beads were added at a 1:1 bead-to-cell ratio. T cells are incubated at 37° C., 5% CO2 for approximately 1 week, splitting in order to maintain the 1×10^6 cells/mL seeding density and with the addition of fresh media. T cells often saw a 20- to 30-fold expansion.
Expansion beads were magnetically removed from the T cell culture. Remaining T cells were cultured at 1×10^6 cells/mL in media and the IL-2 level was dropped to 10 units/milliliter (U/mL). T cells are rested 24 hours. Meanwhile, another vial of PBMC of the same donor was thawed and similarly rested overnight in media. 1 million expanded T cells and 0.25 million PBMC were cocultured in 1 mL of media containing 10 U/mL IL-2 in 24 well plates. Each well was stimulated with 40 μg of peptide with at least 6 well replicates for each peptide. Sterile water with 10% DMSO was used as a negative control. Plates were incubated at 37° C., 5% CO2 for 3 days. After 3 days, supernatants of each well were collected into Eppendorf tubes and frozen. Cells were resuspended in fresh media containing 10 U/mL IL-2. Cells were restimulated with 40 μg of peptide in the same format. Plates were incubated for another 3 days (see FIG. 2). Supernatants were collected after the second stimulation and cell culture was terminated.
IL-10 and IFN-γ cytokine concentrations were determined for samples. 96-well microwell plates were coated with capture antibody and incubated overnight at 4° C. Frozen supernatants were thawed and assayed using ELISA MAX™ Deluxe kits.
To quantify the number of responding wells for each peptide, a one sample t-test was utilized where signal from each well was compared against the distribution of negative wells from vehicle only controls. The negative distribution was normal (based on Shapiro Wilk test). […] As such, for each peptide, a fraction of responding wells was derived. The fraction of responding wells after the first and second peptide stimulations in the expanded CD4+ T cell assay are shown in FIGS. 5A-5D. Moreover, the fraction of responding wells was further subjected to the statistical test for proportions which takes into account the sample size.

Substance | IFN-γ signal (upon double stimulation) [pg/mL] | IFN-γ signal (upon single stimulation) [pg/mL] | response across donors (frequency of responding wells, IL-10 and IFN-γ) | IFN-γ release (peptide 40 μg/mL, FIGS. 5A-5D) | specificity for IL-10 production vs IFN-γ (three different donors expressing HLA-DRB1*1101)
Keyhole limpet haemocyanin [KLH, reference compound] | 150 | 80 | – | – | –
KLAKRLLLSMNQ [KBP63] | – | – | respond across donors | – | –
FAVPAKQAKKTLT [KBP82] | – | – | respond across donors | minimal levels | high specificity
LALLAPKLLRRF [KBP73] | – | – | respond across donors | – | –
